# PubChem BioAssay (NCI)
#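 Method: 48-hour compound exposure of cells in 96-well plates, five concentrations, linear interpolation of endpoints. Here, GI50 denotes the concentration required for 50% inhibition of growth. Definition used: TGI = concentration required for complete inhibition of growth.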
# Columns and labels:
# Assay in all cases: growth of human tumour cells (NCI), 48 h
# 786-0 renal = tested on: 786-0 renal
# A498 renal = tested on: A498 renal
# A549 NSCLC = tested on: A549 NSCLC
# ACHN renal = tested on: ACHN renal
# BT-549 breast = tested on: BT-549 breast
# CAKI-1 renal = tested on: CAKI-1 renal
# CCRF-CEM leukemia = tested on: CCRF-CEM leukemia
# COLO 205 colon = tested on: COLO 205 colon
# DU-145 prostate = tested on: DU-145 prostate
# EKVX NSCLC = tested on: EKVX NSCLC
# HCC-2998 colon = tested on: HCC-2998 colon
# HCT-116 colon = tested on: HCT-116 colon
# HCT-15 colon = tested on: HCT-15 colon
# HL-60(TB) leukemia = tested on: HL-60(TB) leukemia
# HOP-62 NSCLC = tested on: HOP-62 NSCLC
# HOP-92 NSCLC = tested on: HOP-92 NSCLC
# HS 578T breast = tested on: HS 578T breast
# HT29 colon = tested on: HT29 colon
# IGROV1 ovarian = tested on: IGROV1 ovarian
# K-562 leukemia = tested on: K-562 leukemia
# KM12 colon = tested on: KM12 colon
# LOX IMVI melanoma = tested on: LOX IMVI melanoma
# M14 melanoma = tested on: M14 melanoma
# MALME-3M melanoma = tested on: MALME-3M melanoma
# MCF7 breast = tested on: MCF7 breast
# MDA-MB-231 breast = tested on: MDA-MB-231 breast
# MDA-MB-435 = tested on: MDA-MB-435
# MOLT-4 leukemia = tested on: MOLT-4 leukemia
# NCI-H226 lung = tested on: NCI-H226 lung
# NCI-H23 lung = tested on: NCI-H23 lung
# NCI-H460 lung = tested on: NCI-H460 lung
# NCI-H522 lung = tested on: NCI-H522 lung
# NCI/ADR-RES ovarian = tested on: NCI/ADR-RES ovarian
# OVCAR-3 ovarian = tested on: OVCAR-3 ovarian
# OVCAR-4 ovarian = tested on: OVCAR-4 ovarian
# OVCAR-5 ovarian = tested on: OVCAR-5 ovarian
# OVCAR-8 ovarian = tested on: OVCAR-8 ovarian
# PC-3 prostate = tested on: PC-3 prostate
# RPMI-8226 leukemia = tested on: RPMI-8226 leukemia
# RXF 393 renal = tested on: RXF 393 renal
# SF-268 CNS = tested on: SF-268 CNS
# SF-295 CNS = tested on: SF-295 CNS
# SF-539 CNS = tested on: SF-539 CNS
# SK-MEL-2 melanoma = tested on: SK-MEL-2 melanoma
# SK-MEL-28 melanoma = tested on: SK-MEL-28 melanoma
# SK-MEL-5 melanoma = tested on: SK-MEL-5 melanoma
# SK-OV-3 ovarian = tested on: SK-OV-3 ovarian
# SN12C renal = tested on: SN12C renal
# SNB-19 CNS = tested on: SNB-19 CNS
# SNB-75 CNS = tested on: SNB-75 CNS
# SR leukemia = tested on: SR leukemia
# SW-620 colon = tested on: SW-620 colon
# T-47D breast = tested on: T-47D breast
# TK-10 renal = tested on: TK-10 renal
# U251 CNS = tested on: U251 CNS
# UACC-257 melanoma = tested on: UACC-257 melanoma
# UACC-62 melanoma = tested on: UACC-62 melanoma
# UO-31 renal = tested on: UO-31 renal
structure (smiles),measurement,setting,value
O=C1C=CC[C@H](/C=C/c2ccccc2)O1,GI50,786-0 renal,6.28 µM
same,TGI,786-0 renal,24.3 µM
same,GI50,A498 renal,1.45 µM
same,TGI,A498 renal,6.91 µM
same,GI50,A549 NSCLC,3.56 µM
same,TGI,A549 NSCLC,> 100 µM
same,GI50,ACHN renal,4.04 µM
same,TGI,ACHN renal,16.6 µM
same,GI50,BT-549 breast,2.28 µM
same,TGI,BT-549 breast,19.3 µM
same,GI50,CAKI-1 renal,1.05 µM
same,TGI,CAKI-1 renal,14.4 µM
same,GI50,CCRF-CEM leukemia,9.5 µM
same,TGI,CCRF-CEM leukemia,> 50.2 µM
same,GI50,COLO 205 colon,2.03 µM
same,TGI,COLO 205 colon,20.2 µM
same,GI50,DU-145 prostate,2.82 µM
same,TGI,DU-145 prostate,9.07 µM
same,GI50,EKVX NSCLC,6.48 µM
same,TGI,EKVX NSCLC,> 50.1 µM
same,GI50,HCC-2998 colon,0.642 µM
same,TGI,HCC-2998 colon,3.42 µM
same,GI50,HCT-116 colon,1.72 µM
same,TGI,HCT-116 colon,13.9 µM
same,GI50,HCT-15 colon,3.14 µM
same,TGI,HCT-15 colon,22.2 µM
same,TGI,HL-60(TB) leukemia,> 34 µM
same,GI50,HOP-62 NSCLC,7.44 µM
same,TGI,HOP-62 NSCLC,> 61.6 µM
same,GI50,HOP-92 NSCLC,1.19 µM
same,TGI,HOP-92 NSCLC,18.3 µM
same,GI50,HS 578T breast,3.15 µM
same,TGI,HS 578T breast,30.4 µM
same,GI50,HT29 colon,1.88 µM
same,TGI,HT29 colon,23.9 µM
same,GI50,IGROV1 ovarian,5.44 µM
same,TGI,IGROV1 ovarian,26.5 µM
same,TGI,K-562 leukemia,> 100 µM
same,GI50,KM12 colon,4.06 µM
same,TGI,KM12 colon,17.8 µM
same,GI50,LOX IMVI melanoma,1.7 µM
same,TGI,LOX IMVI melanoma,7.93 µM
same,GI50,M14 melanoma,5.85 µM
same,TGI,M14 melanoma,23.3 µM
same,GI50,MALME-3M melanoma,18.5 µM
same,TGI,MALME-3M melanoma,> 100 µM
same,GI50,MCF7 breast,1.65 µM
same,TGI,MCF7 breast,> 37.8 µM
same,GI50,MDA-MB-231 breast,5.42 µM
same,TGI,MDA-MB-231 breast,32.4 µM
same,GI50,MDA-MB-435,1.81 µM
same,TGI,MDA-MB-435,14.8 µM
same,TGI,MOLT-4 leukemia,> 100 µM
same,GI50,NCI-H226 lung,0.787 µM
same,TGI,NCI-H226 lung,4.31 µM
same,GI50,NCI-H23 lung,2.14 µM
same,TGI,NCI-H23 lung,10.7 µM
same,GI50,NCI-H460 lung,1.53 µM
same,TGI,NCI-H460 lung,14.3 µM
same,GI50,NCI-H522 lung,2.72 µM
same,TGI,NCI-H522 lung,> 25.4 µM
same,GI50,NCI/ADR-RES ovarian,3.12 µM
same,TGI,NCI/ADR-RES ovarian,> 23.2 µM
same,GI50,OVCAR-3 ovarian,1.94 µM
same,TGI,OVCAR-3 ovarian,7.31 µM
same,GI50,OVCAR-4 ovarian,1.39 µM
same,TGI,OVCAR-4 ovarian,10.7 µM
same,GI50,OVCAR-5 ovarian,1.92 µM
same,TGI,OVCAR-5 ovarian,10.4 µM
same,GI50,OVCAR-8 ovarian,6.03 µM
same,TGI,OVCAR-8 ovarian,> 100 µM
same,GI50,PC-3 prostate,3.37 µM
same,TGI,PC-3 prostate,27.5 µM
same,GI50,RPMI-8226 leukemia,0.742 µM
same,GI50,RXF 393 renal,5.23 µM
same,TGI,RXF 393 renal,> 100 µM
same,GI50,SF-268 CNS,2.44 µM
same,TGI,SF-268 CNS,16.6 µM
same,GI50,SF-295 CNS,2.54 µM
same,TGI,SF-295 CNS,> 40.9 µM
same,GI50,SF-539 CNS,0.813 µM
same,TGI,SF-539 CNS,8.24 µM
same,GI50,SK-MEL-2 melanoma,6.57 µM
same,TGI,SK-MEL-2 melanoma,34.2 µM
same,GI50,SK-MEL-28 melanoma,2.76 µM
same,TGI,SK-MEL-28 melanoma,15.3 µM
same,GI50,SK-MEL-5 melanoma,3.39 µM
same,TGI,SK-MEL-5 melanoma,16.6 µM
same,GI50,SK-OV-3 ovarian,5.54 µM
same,TGI,SK-OV-3 ovarian,99.4 µM
same,GI50,SN12C renal,3.55 µM
same,TGI,SN12C renal,17.9 µM
same,GI50,SNB-19 CNS,3.61 µM
same,TGI,SNB-19 CNS,22.6 µM
same,GI50,SNB-75 CNS,0.394 µM
same,TGI,SNB-75 CNS,4.69 µM
same,GI50,SR leukemia,2.78 µM
same,TGI,SR leukemia,> 100 µM
same,GI50,SW-620 colon,1.39 µM
same,TGI,SW-620 colon,16 µM
same,GI50,T-47D breast,6.29 µM
same,TGI,T-47D breast,37.7 µM
same,GI50,TK-10 renal,11.5 µM
same,TGI,TK-10 renal,> 53.2 µM
same,GI50,U251 CNS,1.88 µM
same,TGI,U251 CNS,13.1 µM
same,GI50,UACC-257 melanoma,9.81 µM
same,TGI,UACC-257 melanoma,26.9 µM
same,GI50,UACC-62 melanoma,4.84 µM
same,TGI,UACC-62 melanoma,19 µM
same,GI50,UO-31 renal,3.89 µM
same,TGI,UO-31 renal,8.99 µM
